From EPA's ToxValDB 9.5 (doi:10.2903/j.efsa.2014.3873)
Values after ≈ are worked out from the molar mass of the structure shown.

What was measured:
Adalia sp. = assay: LR50; higher = less toxic; conditions: acute; duration: 48 hours; mortality
Apis mellifera = conditions: acute; dermal; mortality
Rattus norvegicus = conditions: for NOAEL: clinical signs
Daphnia magna = conditions: chronic/long-term, duration: 21 days
Bibionidae = conditions: chronic/long-term; duration: 28 days; other

CC(C)[C@H](C(=O)O[C@H](C#N)c1cccc(Oc2ccccc2)c1)c1ccc(Cl)cc1 [Esfenvalerate] was tested, and the LR50 (Adalia sp.) was 0.291 g/ha, the LC50 (Oncorhynchus mykiss; acute, duration: 96 hours, mortality) was 0.1 ng/mL (≈ 0.238 nM) and the NOEC (Oncorhynchus mykiss; chronic/long-term, duration: 21 days) was 0.001 µg/L. For the same molecule, the LD50 (Apis mellifera) was 0.06 µg/piece, the LC50 (Tagia sp.; acute, mortality) was 10.6 mg/kg and the NOEC (Tagia sp.; chronic/long-term) was 1.1 mg/kg. The NOAEL (Rattus norvegicus; acute) was 1.75 mg/kg-day, the LD50 (Rattus norvegicus; acute, oral, mortality) was 88.5 mg/kg and the NOAEL (Rattus norvegicus; chronic) was 1.75 mg/kg-day. It also gave an NOEC (Daphnia magna) of 0.052 µg/L, an NOEC (Daphnia magna; reproduction) of 0.0038 µg/L and an LD50 (Colinus virginianus; acute, oral, mortality) of 1310 mg/kg-day. The NOEC (Colinus virginianus; reproduction developmental) was 18.7 mg/kg-day and the NOEC (Bibionidae) was 0.16 µg/L.
